Columns and labels:
[1] = tested on: human adipose stem cells (hASCs); test: Quantitative alkaline phosphatase (ALP) activity of hASCs, normalized to DNA, as early osteogenic marker; type: cell-based
Experimental: (§1) The study was conducted in accordance with the ethics committee of the Pirkanmaa Hospital District, Tampere, Finland (R03058). ASCs were isolated from subcutaneous adipose tissue samples obtained with written informed consent from 4 female donors (age, 44±7 years) undergoing elective surgical procedures in the Department of Plastic Surgery, Tampere University Hospital, Tampere, Finland. Isolation of hASCs from adipose tissue samples was carried out by using a mechanical and enzymatic method. The adipose tissue was minced manually into small fragments and digested with collagenase NB 6 GMP Grade (SERVA Electrophoresis GmbH, Heidelberg, Germany) in a water bath at 37° C. under shaking conditions. The digested tissue was centrifuged and filtered in sequential steps through a 100-μm poresize filter to separate the ASCs from the surrounding tissue. Cells were expanded in T75 flasks and passaged after reaching 80% confluency. Expansion was done in DMEM/F-12 1:1 (Life Technologies, Gibco, Carlsbad, Calif., USA) supplemented with 1% l-analyl-l-glutamine (GlutaMAX I; Life Technologies, Gibco), 1% antibiotics (p/s; 100 U/ml penicillin, 0.1 mg/ml streptomycin; Lonza, BioWittaker, Verviers, Belgium) and 10% HS (PAA Laboratories). ASCs were detached by using TrypLE Select (LifeTechnologies, Gibco). Cell surface marker profile (FIG. 1) was analyzed using flow cytometry (FACSAria; BD Biosciences, Erembodegem, Belgium) as described in Patrikoski et al (2013).
The effect obtainable with the present medium and method was studied experimentally. The differentiation into osteogenic cells was analysed following alkaline phosphatase (ALP) as early osteogenic marker and mineralization as a marker for advanced osteogenic process. FIG. 2 illustrates protein expression of alkaline phosphatase (ALP) analysis in various media. Results have been normalized to the amount of DNA. BM denotes basal medium, SB a p38 MAP kinase inhibitor SB 202190 and OM an osteogenic medium. In FIG. 2A these differentiation media results (BM+SB and OM) were compared against BM as a control. In FIG. 2B and 2C results from two cell lines from different patients were analyzed in two time points (after 7 and 14 days) to show the independence on the source (patient-lines) of the present medium and inter-patient predictability in that sense. In these experiments, SB was used in a concentration of 2 μM.
In further experiments, the effect of a concentration gradient of two different p38 MAPK inhibitors, i.e. SB 202190 and JX401, on osteogenic differentiation of hASCs was analysed. First, the effect of SB202190 inhibitor in a concentration range of 2 to 10 μM on hASCs was studied in BM culture conditions. […] In this case, the analysis was performed both in BM and osteogenic medium (OM).
(§2) In the above experiments, the basal medium used was DMEM/F12+5% HSPaa serum. Said p38 MAP kinase inhibitor SB 202190 was from SigmaAldrich, while JX401 was from Calbiochem. Osteogenic medium representing the state of the art, was a base medium supplemented with L-ascorbic acid-2phosphate (AsAP), β-glycerolphosphate, and dexamethasone.

[2] = tested on: human adipose stem cells (hASCs); test: Quantitative Alizarin Red mineralization assay of hASCs; type: cell-based; details: for peak concentration (Alizarin Red mineralization): 2 or 5 μM tested
Experimental: as §1
FIG. 3 represents quantitated Alizarin Red mineralization analysis of ASCs in basal medium, osteogenic medium, with and without SB inhibitor (2 μM) in time point 21 days.
To analyze how p38MAPK inhibitors affect the progression of osteogenic differentiation, Alizarin Red mineralization assay was performed both in BM and OM conditions. In both culture conditions, SB202190 inhibitor peaked at the concentration of 2 μM, but in OM also 5 μM was functional (FIG. 4C).
as §2

Row | SMILES | ALP activity of hASCs ([1]; 2 μM in BM, days 7 and 14, patient cell line 15/12 (FIG. 4B)) | functional concentration peak (ALP activity) ([1]; in BM, 2/5/10 μM tested, days 7 and 14, patient cell line 15/12 (FIG. 4B)) | most effective concentration (ALP activity) ([1]; in OM, 2/5/10 μM tested, days 7 and 14, patient cell line 15/12 (FIG. 4B)) | ALP activity of hASCs ([1]; 2 μM in BM, day 14, patient cell line 1/13 (FIG. 4A)) | osteogenic differentiation (ALP) in basal medium compared with osteogenic medium ([1]; 2 μM inhibitor in BM vs OM) | detection of alkaline phosphatase marker / differentiation across patient cell lines ([1]; 2 μM inhibitor, days 7 and 14, different patient cell lines) | ALP activity of hASCs ([1]; 5 μM in BM, day 14, patient cell line 1/13 (FIG. 4A)) | ALP activity of hASCs ([1]; 10 μM in BM, day 14, patient cell line 1/13 (FIG. 4A)) | Alizarin Red mineralization with and without inhibitor ([2]; 2 μM, day 21, patient cell line 41/12 (FIG. 3)) | Alizarin Red mineralization ([2]; 5 μM in OM, day 14, patient cell line 11/13 (FIG. 4C)) | peak concentration (Alizarin Red mineralization) ([2]; in BM, day 14, patient cell line 11/13 (FIG. 4C)) | peak concentration (Alizarin Red mineralization) ([2]; in OM, day 14, patient cell line 11/13 (FIG. 4C))
1 | COc1cc(SC)ccc1C(=O)N1CCC(Cc2ccccc2)CC1 [JX401, 1-[2-Methoxy-4-(methylthio)benzoyl]-4-benzylpiperidine] | effective as compared to the highest concentration | 5 µM | 2 µM | – | – | – | – | – | – | – | – | –
2 | Oc1ccc(-c2nc(-c3ccc(F)cc3)c(-c3ccncc3)[nH]2)cc1 [SB202190, 4-(4-Fluorophenyl)-2-(4-hydroxyphenyl)-5-(4-pyridyl)-1H-imidazole] | – | – | – | clearly enhanced | almost equal level as with use of osteogenic medium | detected in every patient cell line | clearly enhanced | diminished compared to the other two concentrations | enhancer of advanced processes of osteogenesis | functional | 2 µM | 2 µM
